Test results as given in US9950005B2, “Compositions comprising biomembrane sealing agent for treatment of neuronal injury, and methods of use” (WARSAW ORTHOPEDIC, INC., priority 2006, dated 2018).

How the values were obtained:
Assay type in all cases: in vivo, rat
[1] = system: carrageenan-induced hind paw acute inflammation; experiment: Carrageenan hind paw acute inflammation model, mechanical allodynia (up-down method); details: Example 7, 24 h after carrageenan
Protocol: Animals were treated with saline (0.5% final), indomethacin, PEG, magnesium or combined PEG+magnesium solutions. Each animal received 2 injections, the first one 1 hour following carrageenan injection and the second injection 6 hours later. The total dose of PEG and magnesium chloride administered was of 2 and 0.135 g/kg (body weight) respectively. There were 10 animals per group.
Indomethacin (Fluka, cat. 57413, lot 450544/1) was dissolved in 25% hydroxyl-propyl beta cyclodextrin (hpBCD) by gentle heating and stirring. The PEG solution was composed of PEG3350 at 30% in 0.5% saline, the magnesium solution was composed of magnesium chloride at 2% and the combined PEG+magnesium solution was composed of 30% PEG3350+2% Magnesium Chloride (custom made by AAIPharma Developmental Services, Wilmington, N.C.). […]
Twenty-four hours following carrageenan injection into the left paw, the same paw was tested for mechanical allodynia. Baseline and post-treatment values for non-noxious mechanical sensitivity were evaluated using 8 Semmes-Weinstein filaments (Stoelting, Wood Dale, Ill., USA) with varying stiffness (0.4, 0.7, 1.2, 2.0, 3.6, 5.5, 8.5, and 15 g) according to the up-down method (Chaplan et al., 1994). […]
To evaluate the significance of difference between experimental groups, data were analyzed using an unpaired, two-tailed t statistical test with confidence intervals of 95%.

[2] = system: spinal cord contusion (T10, pneumatic impactor); experiment: Spinal cord lesion volume after spinal cord contusion (dural impact); details: Example 4, total PEG 2 g/kg, magnesium sulfate 0.12 g/kg i.v., PEG change not statistically significant
Excerpt: Sprague-Dawley female rats (200-225 gm) received a spinal cord contusion using the Precision Scientific Inc pneumatic impactor. Prior to surgery, rats were assigned to different treatment groups based on a randomized block design so that on any given surgery day all treatments would be included. […] The vertebral column was stabilized with angled clamps on the upper thoracic (T8) and lumbar (T11) levels and the impactor with a tip diameter of 2 mm was delivered at approximately 50 kd onto the exposed, intact dura overlying the dorsal spinal cord. The impactor was immediately removed, the wound irrigated with saline, and the muscle and skin openings sutured together. Female animals were used due to the paralysis associated with the injury and ease of voiding the bladder.
At the end of the study, the spinal cords were extracted and fixed in 4% paraformaldehyde. […] Tissue sparing was determined by computed image analysis be from 10 evenly spaced sections through the injured T10 segment. […]

[3] = system: controlled cortical impact model of brain injury; experiment: Morris Water Maze test of cognitive function after controlled cortical impact TBI
Excerpt: Male Sprague-Dawley rats (Harlan Sprague-Dawley, Indianapolis, Ind.), weighing 350-450 grams each were given free access to food and water before the experiment. The animals were anesthetized with halothane (1% in 70%/30% […] by mask).
The controlled cortical impact model of brain injury utilized in this study has been described in detail (Scheff and Sullivan, 1999). Animals were anesthetized with isoflorane and placed in a stereotaxic frame in the […] position. A 6 mm craniotomy located approximately midway between bregma and lambda, just above the somatosensory cortex, was made using a Michele trephine. The skull disk was then removed without disturbing the underlying dura mater. The exposed brain was injured using an electronically controlled piston (5 mm diameter, 65 kdynes). The animals in the “sham” group underwent identical surgical procedures, but the surface of the brain was not impacted.
Following surgery, animals were placed in their home cage and dosing was initiated. Animals were treated with saline (Group 1: sham, Group 2: injured), PEG (Group 3: injured), magnesium (Group 4: injured) or a combination of PEG and magnesium solutions (Group 5: injured). The PEG solution was composed of PEG3350 at 30% in 0.5% saline (custom made by AAIPharma Developmental Services, Wilmington, N.C.). […] The magnesium solution was diluted in saline 1:1 before intravenous injection as recommended by the manufacturer. In the cases of combined PEG+Mg combined treatments, animal received the PEG and magnesium components from two individual solutions.
The first two injections were administered 15 minutes following injury. Another round of two injections was given 6 hours later. […] The compounds tested were administered by bolus intravenous injection. There were 10 animals per group.
This behavioral endpoint measure the ability of the rat to learn a new task based on the memorization of spatial cues. […]. […]
To evaluate the significance of difference between experimental groups, data were analyzed using an unpaired, two-tailed t statistical test with confidence intervals of 95%. […]

[4] = system: controlled clip-compression injury at T4; experiment: Neuropathic pain (mechanical allodynia, Semmes-Weinstein monofilament) after SCI; details: Example 6; mechanical allodynia up to 3 weeks post-injury
Protocol: Animals were prepared as described in Example 3. Animals were tested for the development of neuropathic pain before and up to 3 weeks post-injury. Neuropathic pain occurrence and severity was evaluated by the response of the animal to a stimulus that is normally not painful or allodynia. […] The monofilament was applied 10 times for 3 seconds, with each stimulus being separated by a 5 second interval, and the number of avoidance responses out of a possible 10 were recorded. Avoidance responses were defined as flinching, escape, vocalization, or abnormal aggressive behaviors. The scoring system used to monitor mechanical allodynia has been presented in details in Gris et al., 2004. Mechanical allodynia testing was conducted twice per week and the 2 tests were averaged for each animal and reported as a weekly pain score. To evaluate the significance of difference between experimental groups, data were analyzed using an unpaired, two-tailed t statistical test with confidence intervals of 95%. The Welch's modification was also used to analyze the motor recovery to take in account the significant variability in the control group.

For `COc1ccc2c(c1)c(CC(=O)O)c(C)n2C(=O)c1ccc(Cl)cc1` [Indomethacin], the “mean pain score (mechanical allodynia)” value ([1]; carrageenan-saline 3.4+/−0.5, sham 12.7+/−1.1, higher is better) was 5.6+/−0.9.
`O=S(=O)([O-])[O-].[Mg+2]` [Mg, magnesium sulfate] was tested, and the “reduction of the lesion volume relative to control group (SCI-Saline)” value [2] was 33%, the “effect on cognitive functions following TBI” value ([3]; Example 1, i.v. 15 min and 6 h post-injury, total PEG 1.4 g/kg, magnesium sulfate 0.230 mmol/kg, Morris Water Maze day 9-14) was “no effect” and the “effect on the development of neuropathic pain after SCI” value [4] was “no significant effect”.
With `[Cl-].[Cl-].[Mg+2]` [magnesium chloride] the “effect on cognitive recovery after TBI” value ([3]; Example 2, total 1.4 g/kg PEG, 0.230 mmol/kg magnesium chloride, 2 injections 15 min and 6 h post-TBI) was “no significant effect”, the “effect on the loss of cognitive functions following brain injury” value ([3]; summary statement in description) was “no effect” and the “effect on the pain score relative to animals treated with saline” value ([1]; total PEG 2 g/kg, magnesium chloride 0.135 g/kg) was “no significant effect”.
